Results published in patent US11000033B2, “Ketone or oxime compound, and herbicide” (NISSAN CHEMICAL CORPORATION, priority 2014, dated 2021).

Columns and labels:
Type in all cases: in vivo
beet [1] = test: Test Example 4: effect on crop by soil treatment (symbol f); settings: application herbicide amount 320 g/ha
In short: (§1)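 Sterilized diluvial soil, spot sowing, ~1.5 cm soil cover; greenhouse 25–30° C.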

soybean [2] = test: Test Example 4: effect on crop by soil treatment (symbol d); settings: application herbicide amount 320 g/ha
In short: as §1

Alopecurus myosuroides = test: Test Example 5: herbicidal effect by foliage application, plastic box (symbol J); settings: 320 g/ha, 3 weeks after application
In short: (§2)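 Herbicide, formulated as an emulsion and diluted in water, is sprayed onto the aerial parts of 14-day seedlings. These were grown at 25° C. to 30° C. in sterilized diluvial soil; effects are graded after 3 weeks.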

Veronica persica = test: Test Example 4: herbicidal effect by soil treatment (symbol R); settings: application herbicide amount 320 g/ha
In short: (§3)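 Seeds were sown in sterilized diluvial soil, covered with about 1.5 cm of soil, and the soil surface was sprayed with a water-diluted emulsion of the compound at a predetermined rate. Plants grew in a greenhouse at 25° C. to 30° C.; effects were scored visually 3 weeks after application.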

wheat = test: Test Example 5: effect on crop by foliage application, plastic box (symbol e); settings: 320 g/ha, 3 weeks after application
In short: (§4)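 Greenhouse culture at 25° C. to 30° C. followed spot-like sowing into sterilized diluvial soil, with seed covered by roughly 1.5 cm of soil.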

Galium spurium = test: Test Example 5: herbicidal effect by foliage application, plastic box (symbol Q); settings: 320 g/ha, 3 weeks after application
In short: as §2

Stellaria media = test: Test Example 4: herbicidal effect by soil treatment (symbol P); settings: application herbicide amount 320 g/ha
In short: as §3

beet [3] = test: Test Example 5: effect on crop by foliage application, plastic box (symbol f); settings: 320 g/ha, 3 weeks after application
In short: as §4

[4] = tested on: Echinochloa crus-galli var. crus-galli; test: Test Example 3: herbicidal effect by foliage application, Wagner pot (symbol H); settings: application herbicide amount 320 g/ha
In short: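 Scoring took place 3 weeks after application, using fixed criteria. Plants had been raised from seed for 14 days at 25 to 30 °C in submerged alluvial soil before a diluted emulsion of the test compound was sprayed uniformly on the leaves.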

[5] = tested on: Echinochloa oryzacola Vasing.; test: Test Example 1: herbicidal activity, application before weed generation in submerged conditions (symbol A); settings: application herbicide amount 320 g/ha
In short: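 Application before weed emergence: an aqueous dilution of the emulsion formulation was poured onto the surface of 4 cm-deep floodwater on the day of sowing. Effect was judged after 3 weeks (greenhouse, 25–30 °C).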

transplanted rice plant = test: Test Example 1: effect on crop, application before weed generation in submerged conditions (symbol a); settings: application herbicide amount 320 g/ha
In short: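 Rice at 2.5 leaf stage transplanted into submerged soil (4 cm depth) sown with three weed species; herbicide applied before weed emergence.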

corn = test: Test Example 4: effect on crop by soil treatment (symbol c); settings: application herbicide amount 320 g/ha
In short: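 Plants are raised in a greenhouse (25° C. to 30° C.) from spot-sown seed, which sits under about 1.5 cm of sterilized diluvial soil in a box shared with weed species.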

soybean [6] = test: Test Example 5: effect on crop by foliage application, plastic box (symbol d); settings: 320 g/ha, 3 weeks after application
In short: as §4

rice plant = test: Test Example 5: effect on crop by foliage application, plastic box (symbol b); settings: 320 g/ha, 3 weeks after application
In short: as §4

Abutilon theophrasti = test: Test Example 5: herbicidal effect by foliage application, plastic box (symbol M); settings: 320 g/ha, 3 weeks after application
In short: as §2

SMILES	Effect on crop grade, f: beet (beet [1])	Effect on crop grade, d: soybean (soybean [2])	J: Alopecurus myosuroides, herbicidal effect (criteria of Test Example 1) (Alopecurus myosuroides)	Herbicidal effect grade, R: Veronica persica (Veronica persica)	e: wheat, effect on crop (criteria of Test Example 1) (wheat)	Q: Galium spurium, herbicidal effect (criteria of Test Example 1) (Galium spurium)	Herbicidal effect grade, P: Stellaria media (Stellaria media)	f: beet, effect on crop (criteria of Test Example 1) (beet [3])	herbicidal effect on H (Echinochloa crus-galli var. crus-galli), grade 0-5 [4]	Herbicidal effect grade, A: Echinochloa oryzacola Vasing. [5]	Effect grade on crop, a: transplanted rice plant (transplanted rice plant)	Effect on crop grade, c: corn (corn)	d: soybean, effect on crop (criteria of Test Example 1) (soybean [6])	b: directly sowed rice plant, effect on crop (criteria of Test Example 1) (rice plant)	M: Abutilon theophrasti, herbicidal effect (criteria of Test Example 1) (Abutilon theophrasti)	other results
CON=C(C)CC1CC(O)=C(c2c(F)cc(Br)cc2OC)C1=O (centres unmarked) [6-096]	0 (Herbicidal ratio of 5% or lower (almost no effect))	0 (Herbicidal ratio of 5% or lower (almost no effect))	4 (Herbicidal ratio of 70% or higher and lower than 90%)	0 (Herbicidal ratio of 5% or lower (almost no effect))	3 (Herbicidal ratio of 40% or higher and lower than 70%)	0 (Herbicidal ratio of 5% or lower (almost no effect))	0 (Herbicidal ratio of 5% or lower (almost no effect))	0 (Herbicidal ratio of 5% or lower (almost no effect))	5 (Herbicidal ratio of 90% or more (almost completely withered))	1 (Herbicidal ratio of 5% or higher and lower than 20%)	5 (Herbicidal ratio of 90% or more (almost completely withered))	3 (Herbicidal ratio of 40% or higher and lower than 70%)				
COc1cc(Br)cc(F)c1C1=C(O)CC(CC(C)=O)C1=O (centres unmarked) [7-029]	0 (Herbicidal ratio of 5% or lower (almost no effect))	0 (Herbicidal ratio of 5% or lower (almost no effect))	3 (Herbicidal ratio of 40% or higher and lower than 70%)	0 (Herbicidal ratio of 5% or lower (almost no effect))	2 (Herbicidal ratio of 20% or higher and lower than 40%)	0 (Herbicidal ratio of 5% or lower (almost no effect))	0 (Herbicidal ratio of 5% or lower (almost no effect))	0 (Herbicidal ratio of 5% or lower (almost no effect))		2 (Herbicidal ratio of 20% or higher and lower than 40%)	0 (Herbicidal ratio of 5% or lower (almost no effect))	0 (Herbicidal ratio of 5% or lower (almost no effect))				H (Echinochloa crus-galli var. crus-galli) herbicidal effect grade ([4]; Table 24): 3 (Herbicidal ratio of 40% or higher and lower than 70%)
CON=C(C)CC1CC(OC(=O)N2CCOCC2)=C(c2c(C)cc(C)cc2OC)C1=O (centres unmarked) [6-094]	0 (Herbicidal ratio of 5% or lower (almost no effect))	0 (Herbicidal ratio of 5% or lower (almost no effect))	5 (Herbicidal ratio of 90% or more (almost completely withered))	3 (Herbicidal ratio of 40% or higher and lower than 70%)	4 (Herbicidal ratio of 70% or higher and lower than 90%)	5 (Herbicidal ratio of 90% or more (almost completely withered))	0 (Herbicidal ratio of 5% or lower (almost no effect))		5 (Herbicidal ratio of 90% or more (almost completely withered))	5 (Herbicidal ratio of 90% or more (almost completely withered))	5 (Herbicidal ratio of 90% or more (almost completely withered))	1 (Herbicidal ratio of 5% or higher and lower than 20%)	4 (Herbicidal ratio of 70% or higher and lower than 90%)	5 (Herbicidal ratio of 90% or more (almost completely withered))	4 (Herbicidal ratio of 70% or higher and lower than 90%)	
CCc1cc(-c2ccc(Cl)cc2)cc(C)c1C1=C(OC(=O)N2CCOCC2)CC(CC(C)=NOC)C1=O (mixture of isomers) [6-064]			3 (Herbicidal ratio of 40% or higher and lower than 70%)		5 (Herbicidal ratio of 90% or more (almost completely withered))			0 (Herbicidal ratio of 5% or lower (almost no effect))	5 (Herbicidal ratio of 90% or more (almost completely withered))	5 (Herbicidal ratio of 90% or more (almost completely withered))	5 (Herbicidal ratio of 90% or more (almost completely withered))		0 (Herbicidal ratio of 5% or lower (almost no effect))	5 (Herbicidal ratio of 90% or more (almost completely withered))	4 (Herbicidal ratio of 70% or higher and lower than 90%)	f: beet, effect on crop grade (beet [1]): 0 (Herbicidal ratio of 5% or lower (almost no effect)); d: soybean, effect on crop grade (soybean [2]): 0 (Herbicidal ratio of 5% or lower (almost no effect)); R: Veronica persica, herbicidal effect grade (Veronica persica): 0 (Herbicidal ratio of 5% or lower (almost no effect)); P: Stellaria media, herbicidal effect grade (Stellaria media): 0 (Herbicidal ratio of 5% or lower (almost no effect)); c: corn, effect on crop grade (corn): 0 (Herbicidal ratio of 5% or lower (almost no effect))
CC(=O)CC1CC(O)=C(c2c(C)cc(-c3ccccn3)cc2C)C1=O (centres unmarked) [7-012]	0 (Herbicidal ratio of 5% or lower (almost no effect))	0 (Herbicidal ratio of 5% or lower (almost no effect))	3 (Herbicidal ratio of 40% or higher and lower than 70%)	0 (Herbicidal ratio of 5% or lower (almost no effect))	1 (Herbicidal ratio of 5% or higher and lower than 20%)		0 (Herbicidal ratio of 5% or lower (almost no effect))	0 (Herbicidal ratio of 5% or lower (almost no effect))	5 (Herbicidal ratio of 90% or more (almost completely withered))	3 (Herbicidal ratio of 40% or higher and lower than 70%)	1 (Herbicidal ratio of 5% or higher and lower than 20%)	0 (Herbicidal ratio of 5% or lower (almost no effect))	2 (Herbicidal ratio of 20% or higher and lower than 40%)	5 (Herbicidal ratio of 90% or more (almost completely withered))	0 (Herbicidal ratio of 5% or lower (almost no effect))	
CON=C(C)CC1CC(O)=C(c2c(C)cc(-c3cc(Cl)cc(Cl)c3)cc2C)C1=O (centres unmarked) [6-087]	0 (Herbicidal ratio of 5% or lower (almost no effect))	3 (Herbicidal ratio of 40% or higher and lower than 70%)	4 (Herbicidal ratio of 70% or higher and lower than 90%)	2 (Herbicidal ratio of 20% or higher and lower than 40%)	1 (Herbicidal ratio of 5% or higher and lower than 20%)		0 (Herbicidal ratio of 5% or lower (almost no effect))	0 (Herbicidal ratio of 5% or lower (almost no effect))	5 (Herbicidal ratio of 90% or more (almost completely withered))	5 (Herbicidal ratio of 90% or more (almost completely withered))	2 (Herbicidal ratio of 20% or higher and lower than 40%)	0 (Herbicidal ratio of 5% or lower (almost no effect))	3 (Herbicidal ratio of 40% or higher and lower than 70%)	1 (Herbicidal ratio of 5% or higher and lower than 20%)	0 (Herbicidal ratio of 5% or lower (almost no effect))	
